These results are taken from ChEMBL document CHEMBL1145647, “Phenylcyclobutyl triazoles as selective inhibitors of 11beta-hydroxysteroid dehydrogenase type I” (Bioorg Med Chem Lett, 2008).

Data set [1] addresses 11-beta-hydroxysteroid dehydrogenase 1 (Homo sapiens, UniProt P28845). The experiment in a line: Inhibition of human 11-beta-HSD1 by SPA assay.
The target of data set [2] is 11-beta-hydroxysteroid dehydrogenase 1 (Mus musculus, UniProt P50172). The experiment in a line: Inhibition of mouse 11-beta-HSD1 by SPA assay.
Chain of 11-beta-hydroxysteroid dehydrogenase 1 (Mus musculus, UniProt P50172) (P50172 whole entry): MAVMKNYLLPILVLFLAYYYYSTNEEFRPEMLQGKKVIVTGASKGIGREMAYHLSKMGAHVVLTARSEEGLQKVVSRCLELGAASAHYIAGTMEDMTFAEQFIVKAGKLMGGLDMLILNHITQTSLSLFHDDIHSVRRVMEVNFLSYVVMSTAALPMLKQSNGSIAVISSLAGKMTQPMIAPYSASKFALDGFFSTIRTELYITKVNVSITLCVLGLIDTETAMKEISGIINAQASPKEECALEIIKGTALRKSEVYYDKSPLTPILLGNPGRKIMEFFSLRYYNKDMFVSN
Data set [3] has as its target T1, 11-beta-hydroxysteroid dehydrogenase type 2 (Homo sapiens, UniProt P80365).
T1 sequence (P80365 whole entry): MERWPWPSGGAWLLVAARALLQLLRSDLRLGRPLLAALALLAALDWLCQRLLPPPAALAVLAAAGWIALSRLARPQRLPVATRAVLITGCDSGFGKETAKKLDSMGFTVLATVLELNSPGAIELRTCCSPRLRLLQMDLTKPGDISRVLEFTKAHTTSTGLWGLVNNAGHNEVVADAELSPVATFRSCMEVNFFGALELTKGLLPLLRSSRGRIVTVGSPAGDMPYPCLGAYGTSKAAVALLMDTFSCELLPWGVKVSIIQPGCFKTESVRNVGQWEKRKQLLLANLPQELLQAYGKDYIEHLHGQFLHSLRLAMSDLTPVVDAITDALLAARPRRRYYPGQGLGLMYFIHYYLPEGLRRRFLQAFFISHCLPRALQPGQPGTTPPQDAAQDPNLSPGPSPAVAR
The experiment in a line: Inhibition of human 11-beta-HSD2 by SPA assay.

Data set [4] addresses T2, 11-beta-hydroxysteroid dehydrogenase type 2 (Mus musculus, UniProt P51661).
T2 sequence (P51661 whole entry): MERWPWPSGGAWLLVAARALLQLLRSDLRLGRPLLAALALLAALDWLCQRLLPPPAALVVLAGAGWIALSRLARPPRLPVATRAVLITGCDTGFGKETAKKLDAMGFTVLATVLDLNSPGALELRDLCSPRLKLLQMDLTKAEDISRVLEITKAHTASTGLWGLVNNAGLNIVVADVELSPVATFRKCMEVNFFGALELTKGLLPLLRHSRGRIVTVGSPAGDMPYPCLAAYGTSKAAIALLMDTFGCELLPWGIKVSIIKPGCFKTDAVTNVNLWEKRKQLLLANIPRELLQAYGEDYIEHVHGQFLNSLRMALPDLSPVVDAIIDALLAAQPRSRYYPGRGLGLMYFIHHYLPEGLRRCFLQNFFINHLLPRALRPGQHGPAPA
Nature of the data set: Inhibition of mouse 11-beta-HSD2 by SPA assay.

The subject of data set [5] is Mus musculus. Nature of the data set: Inhibition of 11-beta-HSD1 in mouse pharmacodynamic model assessed as inhibition of [3H]cortisone to [3H]cortisol at 10 mg/kg, po after 1 hr. Format: functional.
Data set [6] has as its system Mus musculus. The experiment in a line: Inhibition of 11-beta-HSD1 in mouse pharmacodynamic model assessed as inhibition of [3H]cortisone to [3H]cortisol at 10 mg/kg, po after 4 hrs. Format: functional.
Data set [7] is described as follows: Plasma concentration in C57B6 mouse at 10 mg/kg. Format: ADME, organism-based. Details: dose 10 mg/kg.
Data set [8] in a line: Half life in C57B6 mouse at 10 mg/kg. Format: ADME, organism-based. Details: dose 10 mg/kg. The settings on record: in vivo.
The nature of data set [9]: Oral bioavailability in C57B6 mouse at 10 mg/kg. Particulars: in vivo. Type of data set: ADME, organism-based.

As usually defined, the IC50 is the concentration needed to halve the response being measured. Low readings indicate greater potency in that assay, high ones weaker potency in that assay. Usually inhibition in vivo stands for how much of the control response was suppressed. What is called clearance is the rate of elimination divided by the concentration. High values mean a high capacity for elimination, low ones a low capacity for elimination. As usually defined, the half-life is how long it takes for the measured level to halve. A low value points to rapid decline. What is called bioavailability is the share of a dose that reaches the circulation, judged against a reference dose that is usually intravenous. Low values mean poor availability, high ones good availability.

Chain of 11-beta-hydroxysteroid dehydrogenase 1 (Homo sapiens, UniProt P28845) (P28845 whole entry): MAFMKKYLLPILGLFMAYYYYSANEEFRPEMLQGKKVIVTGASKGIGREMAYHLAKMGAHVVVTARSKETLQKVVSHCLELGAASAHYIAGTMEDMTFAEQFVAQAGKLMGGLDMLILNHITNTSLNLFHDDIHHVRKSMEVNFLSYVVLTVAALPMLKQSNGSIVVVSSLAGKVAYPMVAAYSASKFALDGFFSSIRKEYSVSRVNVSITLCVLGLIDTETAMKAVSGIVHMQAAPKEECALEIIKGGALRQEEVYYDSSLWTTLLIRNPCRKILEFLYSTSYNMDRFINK

As for `F[C@H]1C[C@@](c2ccc(Cl)cc2)(c2nnc(C3CC3)n2C2CC2)C1`, the IC50 was 22 nM in data set [1], 38 nM in data set [2], over 4000 nM in data set [3] and over 4000 nM in data set [4].

Turning to `FC1(F)CC(c2ccc(Cl)cc2)(c2nnc(C3CC3)n2C2CC2)C1`, the IC50 was 35 nM in data set [1], 107 nM in [2], over 4000 nM in data set [3] and over 4000 nM in data set [4].

As for `Fc1cccc(C2(c3nnc4n3CCCCCC4)CCC2)c1`, the IC50 in [1] was 2 nM; in data set [2] it was 19 nM; in data set [3], 4000 nM; in data set [4] it was over 4000 nM. The inhibition in vivo at 10 mg/kg was 87% in [5] and 68% in data set [6].

As for `C1C2CC3CC1CC(c1nnc(C4CC4)n1C1CC1)(C2)C3`, in [6], the inhibition in vivo at 10 mg/kg came to 74%.

`Cc1cccc(C2(c3nnc4n3CCCCCC4)CCCC2)c1`: the IC50 in [1] is 10 nM; in data set [2], 57 nM; in [3], 1960 nM; in data set [4], over 4000 nM. The inhibition in vivo at 10 mg/kg in [5] amounted to 20%; in data set [6] it was 22%.

As to `Clc1ccc(C2(c3nnc4n3CCCCCC4)CCCC2)cc1`, the IC50 in data set [1] came to 2 nM; in [2], 41 nM.

For `Cc1ccc(C2(c3nnc4n3CCCCCC4)CCCCC2)cc1`, the IC50 in data set [1] was 15 nM; in data set [2] it was 374 nM; in [4], over 4000 nM.

Take `Fc1ccccc1C1(c2nnc3n2CCCCCC3)CCCC1`: the IC50 in [1] was 1 nM; in data set [2], 27 nM; in data set [3], 1270 nM; in data set [4] it was over 4000 nM. For the same molecule, the inhibition in vivo at 10 mg/kg in [5] came out at 57%; in data set [6] it was 18%.

For `Clc1ccc(C2(c3nnc4n3CCCCCC4)CCCCC2)cc1`, the results for the IC50 in data set [1], in data set [2] and in [4] were 32 nM, 454 nM and over 4000 nM, respectively.

As to `Fc1ccc(C2(c3nnc4n3CCCCCC4)CCC2)cc1`, the IC50 is 3 nM in data set [1], 37 nM in data set [2], over 4000 nM in [3] and over 4000 nM in [4]. Further, the inhibition in vivo at 10 mg/kg is 68% in [5] and 55% in data set [6].

As to `Cc1ccc(C2(c3nnc4n3CCCCCC4)CCCC2)cc1`, the half-maximal inhibitory concentration (IC50) in data set [1] is 2 nM; in data set [2] it was 25 nM; in [4], over 4000 nM. The figures for the inhibition in vivo at 10 mg/kg in data set [5] and in [6] were 35% and 3%, respectively.

With `c1ccc(C2(c3nnc4n3CCCCCC4)CCCCC2)cc1`, the concentration for half-maximal inhibition (IC50) in data set [1] is 13 nM; in [2], 100 nM; in data set [3], 1040 nM; in data set [4] it was over 4000 nM. Further, the inhibition in vivo at 10 mg/kg stood at 25% in [5] and 0% in [6].

Regarding `Fc1ccccc1C1(c2nnc3n2CCCCCC3)CCC1`, the IC50 in data set [1] is 1 nM; in data set [2], 16 nM; in data set [3], under 4000 nM; in data set [4], over 4000 nM. Besides, the inhibition in vivo at 10 mg/kg in data set [5] stood at 90%; in data set [6] it was 53%.

Take `C1CCc2nnc(C34CC5CC(CC(C5)C3)C4)n2CC1`: the IC50 in data set [1] is 7.8 nM; in [2], 98 nM; in data set [3], over 3000 nM; in data set [4], over 10000 nM. The inhibition in vivo at 10 mg/kg stood at 59% in [5] and 17% in [6].

For the molecule `C1CCCn2c(nnc2C23CC4CC(CC(C4)C2)C3)CC1`, in [6], the inhibition in vivo at 10 mg/kg is 24%.

Turning to `Cc1cccc(C2(c3nnc4n3CCCCCC4)CCC2)c1`, the half-inhibitory concentration (IC50) in data set [1] is 2 nM; in data set [2], 52 nM; in data set [3], over 4000 nM; in [4] it was over 4000 nM. The inhibition in vivo at 10 mg/kg amounted to 17% in data set [5] and 22% in data set [6].

Regarding `Clc1ccc(C2(c3nnc4n3CCCCCC4)CCC2)cc1`, the IC50 in [1] amounted to 1 nM; in data set [2] it was 14 nM. Besides, the results for the inhibition in vivo at 10 mg/kg in data set [5] and in data set [6] were 91% and 77%, respectively.

Turning to `Oc1cccc(C2(c3nnc4n3CCCCCC4)CCCC2)c1`, the IC50 in data set [1] was 43 nM; in [2], 61 nM; in data set [3] it was over 4000 nM; in data set [4], over 4000 nM. In addition, the inhibition in vivo at 10 mg/kg in data set [5] came out at 3%; in data set [6], 21%.

In the case of `Clc1ccc(C2(c3nnc4n3CCCCCC4)CC2)cc1`, the IC50 was 2 nM in data set [1], 230 nM in data set [2], over 4000 nM in [3] and over 4000 nM in [4].

Consider `Cc1ccc(C2(c3nnc4n3CCCCCC4)CC2)cc1`, for which the IC50 was 1 nM in [1], 332 nM in data set [2], over 4000 nM in [3] and over 4000 nM in data set [4].

On to `FC(F)(F)c1ccccc1C1(c2nnc3n2CCCCCC3)CCC1`, for which the IC50 in data set [1] was 5 nM; in data set [2], 355 nM; in [3] it was over 4000 nM; in data set [4], over 4000 nM.

On to `c1ccc(C2(c3nnc4n3CCCCCC4)CCCC2)cc1`, for which the IC50 in data set [1] is 2 nM; in [2], 12 nM; in data set [3], 1040 nM; in data set [4], over 4000 nM. For the same molecule, the inhibition in vivo at 10 mg/kg in data set [5] came out at 73%; in [6], 37%.

As to `Fc1ccc(C2(c3nnc4n3CCCCCC4)CCCCC2)cc1`, the IC50 in data set [1] was 27 nM; in data set [2] it was 494 nM; in data set [3], 1170 nM; in data set [4], over 4000 nM.

Take `c1ccc(C2(c3nnc4n3CCCCCC4)CCC2)cc1`: the IC50 in data set [1] was 1 nM; in data set [2], 8 nM; in data set [3] it was 4000 nM; in data set [4] it was over 4000 nM. For the same molecule, the inhibition in vivo at 10 mg/kg amounted to 88% in [5] and 72% in [6].

As to `Fc1ccc(C2(c3nnc4n3CCCCCC4)CCCC2)cc1`, the IC50 is 8 nM in data set [1], 18 nM in [2], over 4000 nM in [3] and over 4000 nM in data set [4]. Besides, the inhibition in vivo at 10 mg/kg in data set [5] was found to be 58%; in [6], 30%.

On to `c1ccc(C2(c3nnc4n3CCCCCC4)CC2)cc1`, for which the IC50 in [1] was 8 nM; in data set [2], 172 nM; in [3], over 4000 nM; in data set [4], over 4000 nM. Besides, the inhibition in vivo at 10 mg/kg in [5] worked out at 63%; in data set [6], 45%.

`FC(F)(F)c1ccc(C2(c3nnc4n3CCCCCC4)CCC2)cc1`: the IC50 in data set [1] was 2 nM; in data set [2], 115 nM; in data set [3], over 4000 nM; in data set [4] it was over 4000 nM.

`Clc1ccc(C2(c3nnc4n3CCCCCC4)CC2)c(Cl)c1`: the IC50 in data set [1] is 2 nM; in data set [2], 199 nM; in [3] it was 1960 nM; in data set [4], over 4000 nM.

As to `F[C@H]1C[C@](c2ccc(Cl)cc2)(c2nnc(C3CC3)n2C2CC2)C1`, the IC50 in [1] was 5 nM; in [2], 16 nM; in data set [3], over 4000 nM; in data set [4], over 4000 nM. The figures for the inhibition in vivo at 10 mg/kg in data set [5] and in [6] were 92% and 91%, respectively. In data set [7], this molecule returned a clearance of 10.7 mL/min/kg. This molecule also showed a half-life in [8] of 1.5 h. In [9], this molecule yielded a bioavailability of 100%.

As for `Cc1ccc(C2(c3nnc4n3CCCCCC4)CCC2)cc1`, the 50% inhibitory concentration (IC50) in [1] was 2 nM; in [2] it was 19 nM; in data set [3], 2010 nM; in data set [4], over 4000 nM. Further, the inhibition in vivo at 10 mg/kg was 48% in [5] and 28% in data set [6].

`Cc1ccccc1C1(c2nnc3n2CCCCCC3)CCC1`: the IC50 in [1] is 1 nM; in data set [2] it was 78 nM; in [3] it was 3320 nM; in [4] it was over 4000 nM. Further, the inhibition in vivo at 10 mg/kg in data set [5] was found to be 23%; in data set [6] it was 21%.
